Holding throughout (assay type): cell-based
In one experiment the test system is Bacillus cereus DAVIES. As to the kind of experiment: MIC by agar dilution. Particulars: Mueller-Hinton agar, 5% sheep blood, 18 hours, read-out: MINIMAL INHIBITORY CONCENTRATION
As to the method:
(§1) The in vitro antibacterial activity of LL-E19020 Gamma is determined against a spectrum of gram positive and gram negative bacteria by a standard agar dilution method. Mueller-Hinton agar containing 5% sheep blood and two-fold decreasing concentrations of LL-E19020 Gamma is poured into petri dishes. The agar surfaces are inoculated with 1 to 5X10^4 colony forming units of bacteria by means of the Steers replicating device. The lowest concentration of antibiotic that inhibits growth of a bacterial strain after 18 hours incubation is recorded as the minimal inhibitory concentration for that strain.
(§2) • 1. Serial two-flow dilutions of drug are prepared in Mueller-Hinton broth in a range of 2560 µg/ml-0.15 µg/ml plus a solvent control. • 2. Two milliliters of drug dilution (10X) are added to sterile screw cap bottles to which 18 ml of Mueller-Hinton agar containing 5.6% defibrinated sheep blood is added. Final drug concentration ranges 256 µg/ml-0.015 µg/ml in agar containing 5% sheep blood. • 3. A few isolated colonies of each test organism are inoculated into 5 ml trypticase soy broth or brain heart infusion broth. The cultures are shaken at 35 °C. for 5 hours. • 4. Each culture is diluted 1:50 (10^-1.7) in Mueller-Hinton broth and applied to agar plates using a Steers replicator. Control plates should be seeded last to ensure that viable organisms are present throughout the procedure. Inoculated agar plates are allowed to stand undisturbed until the inoculum spots are completely absorbed. • 5. The plates are inverted and incubated at 35 °C. for 18 hours with CO2. • 6. The minimum inhibitory concentration (MIC) is taken as the lowest concentration of antimicrobial agent at which complete inhibition of antimicrobial agent at which complete inhibition occurs. A very fine, barely visible haze or a single colony is disregarded.
(Agar dilution tests growth on a series of plates holding different concentrations.)

Experiment [1] has as its system Enterococcus spp. CHBM 88-60. Briefly: MIC by agar dilution. Particulars: Mueller-Hinton agar, 5% sheep blood, 18 hours, read-out: MINIMAL INHIBITORY CONCENTRATION
The method, then: as §1, §2

Experiment [2] has as its system Enterococcus spp. CMC 83-120. Briefly: MIC by agar dilution. The conditions noted are these: Mueller-Hinton agar, 5% sheep blood, 18 hours, read-out: MINIMAL INHIBITORY CONCENTRATION
As to the method:
as §1, §2

For experiment [3], the system named is Enterococcus spp. UCI 85-30. Briefly: MIC by agar dilution. Particulars: Mueller-Hinton agar, 5% sheep blood, 18 hours, read-out: MINIMAL INHIBITORY CONCENTRATION
The method, then:
as §1, §2

In experiment [4] the test system is Enterococcus spp. VGH 84-69. Briefly: MIC by agar dilution. The conditions noted are these: Mueller-Hinton agar, 5% sheep blood, 18 hours, read-out: MINIMAL INHIBITORY CONCENTRATION
As to the method: as §1, §2

The test system of experiment [5] is Enterococcus spp. WRVA 88-33. As to the kind of experiment: MIC by agar dilution. Particulars: Mueller-Hinton agar, 5% sheep blood, 18 hours, read-out: MINIMAL INHIBITORY CONCENTRATION
As to the method: as §1, §2

Experiment [6] relates to Escherichia coli ATCC 25922. Briefly: MIC by agar dilution. Particulars: ATCC25922, Mueller-Hinton agar, 5% sheep blood, 18 hours, read-out: MINIMAL INHIBITORY CONCENTRATION
The method, then: as §1, §2

Experiment [7] deals with Staphylococcus aureus ATCC 25923. As to the kind of experiment: MIC by agar dilution. Particulars: ATCC25923, Mueller-Hinton agar, 5% sheep blood, 18 hours, read-out: MINIMAL INHIBITORY CONCENTRATION
The method, then: as §1, §2

Experiment [8] concerns Staphylococcus aureus ATCC 29213. As to the kind of experiment: MIC by agar dilution. Particulars: ATCC29213, Mueller-Hinton agar, 5% sheep blood, 18 hours, read-out: MINIMAL INHIBITORY CONCENTRATION
As to the method: as §1, §2

For experiment [9], the system named is Staphylococcus aureus CMC 83-131. As to the kind of experiment: MIC by agar dilution. Particulars: CMC83131, Mueller-Hinton agar, 5% sheep blood, 18 hours, read-out: MINIMAL INHIBITORY CONCENTRATION
The method, then: as §1, §2

The test system of experiment [10] is Staphylococcus aureus IVES 160. Briefly: MIC by agar dilution. The conditions noted are these: IVES160, Mueller-Hinton agar, 5% sheep blood, 18 hours, read-out: MINIMAL INHIBITORY CONCENTRATION
The method, then: as §1, §2

The test system of experiment [11] is Staphylococcus aureus NEMC 87-69. Briefly: MIC by agar dilution. The conditions noted are these: NEMC8769, Mueller-Hinton agar, 5% sheep blood, 18 hours, read-out: MINIMAL INHIBITORY CONCENTRATION
As to the method:
as §1, §2

Experiment [12] concerns Staphylococcus epidermidis IVES 455. As to the kind of experiment: MIC by agar dilution. Particulars: IVES455, Mueller-Hinton agar, 5% sheep blood, 18 hours, read-out: MINIMAL INHIBITORY CONCENTRATION
As to the method: as §1, §2

For experiment [13], the system named is Staphylococcus haemolyticus AVAH 88-1. As to the kind of experiment: MIC by agar dilution. Particulars: AVAH881, Mueller-Hinton agar, 5% sheep blood, 18 hours, read-out: MINIMAL INHIBITORY CONCENTRATION
The method, then:
as §1, §2

Experiment [14] has as its system Streptococcus pneumoniae CHBM 88-75. As to the kind of experiment: MIC by agar dilution. Particulars: CHBM8875, Mueller-Hinton agar, 5% sheep blood, 18 hours, read-out: MINIMAL INHIBITORY CONCENTRATION
The method, then: as §1, §2

The subject of experiment [15] is Streptococcus pneumoniae SV-1 (MP). As to the kind of experiment: MIC by agar dilution. The conditions noted are these: Mueller-Hinton agar, 5% sheep blood, 18 hours, read-out: MINIMAL INHIBITORY CONCENTRATION
As to the method:
as §1, §2

Experiment [16] concerns Streptococcus pyogenes AMCH 88-84. Briefly: MIC by agar dilution. Particulars: AMCH8884, Mueller-Hinton agar, 5% sheep blood, 18 hours, read-out: MINIMAL INHIBITORY CONCENTRATION
The method, then:
as §1, §2

In experiment [17] the test system is Streptococcus pyogenes AMCH 88-86. Briefly: MIC by agar dilution. The conditions noted are these: AMCH8886, Mueller-Hinton agar, 5% sheep blood, 18 hours, read-out: MINIMAL INHIBITORY CONCENTRATION
The method, then: as §1, §2

The subject of experiment [18] is Streptococcus pyogenes C203 (MP). As to the kind of experiment: MIC by agar dilution. Particulars: Mueller-Hinton agar, 5% sheep blood, 18 hours, read-out: MINIMAL INHIBITORY CONCENTRATION
As to the method: as §1, §2

Another experiment has as its system gram negative bacteria. As to the kind of experiment: MIC by agar dilution, summary for gram-negative bacteria. The conditions noted are these: 18 h; text summary: no gram-negative activity. The method, then:
as §1
as §2, with “Inoculated agar plates are allowed to stand undisturbed until the inoculum spots are completely absorbed. • 5. The plates are inverted and incubated at 35 °C. for 18 hours with CO2. • 6. The minimum inhibitory concentration (MIC) is taken as the lowest concentration of antimicrobial agent at which complete inhibition of antimicrobial agent at which complete inhibition occurs. A very fine, barely visible haze or a single colony is disregarded.” left out

≈ marks a conversion by molar mass, not a printed value. Where only a bound is given, the exact number is not on record here.

Turning to `C/C=C\C=C\C1OC(O)(C(COC2CC(OC)C(OC3CC(OC)C(OC4CC(OC)C(O)C(C)O4)C(C)O3)C(C)O2)C(=O)NC/C=C/C=C(\C)C(OC)C(C)C2CC(O)C(/C=C/C=C/C=C/C(=O)O)O2)C(OC(=O)Cc2ccc(O)cc2)C(O)C1(C)C` (centres unmarked) [LL-E19020 Gamma], the MIC in the experiment on Bacillus cereus DAVIES came to 32 µg/mL (≈ 25.8 µM); in experiment [1], 16 µg/mL (≈ 12.9 µM); in experiment [2], 16 µg/mL (≈ 12.9 µM); in experiment [3], 16 µg/mL (≈ 12.9 µM); in experiment [4], 16 µg/mL (≈ 12.9 µM); in experiment [5], 16 µg/mL (≈ 12.9 µM). The MIC in experiment [6] is over 128 µg/mL; in experiment [7] it was over 128 µg/mL; in experiment [8], 128 µg/mL (≈ 103 µM); in [9], 64 µg/mL (≈ 51.5 µM); in [10], 32 µg/mL (≈ 25.8 µM); in experiment [11], 32 µg/mL (≈ 25.8 µM). The MIC was 16 µg/mL (≈ 12.9 µM) in [12]; 64 µg/mL (≈ 51.5 µM) in [13]; 16 µg/mL (≈ 12.9 µM) in experiment [14]; 0.12 µg/mL (≈ 0.0966 µM) in [15]; 0.12 µg/mL (≈ 0.0966 µM) in [16]; 0.5 µg/mL (≈ 0.402 µM) in [17]. The MIC in [18] is 0.12 µg/mL (≈ 0.0966 µM); with gram negative bacteria, over 128 µg/mL.

Values taken from patent EP0531640B1, “Antibiotic LL-E19020 Gamma” (F. HOFFMANN-LA ROCHE AG, priority 1991, dated 1993).
